Laboratory results reported in article PMC2809102, “Two New Pimelic Diphenylamide HDAC Inhibitors Induce Sustained Frataxin Upregulation in Cells from Friedreich's Ataxia Patients and in a Mouse Model” (PLoS ONE, 2010).

Experiments:
[1] = system: FXN gene expression; set-up: method as in PMID 16921367, PMID 18463734; settings: FRDA patient cells; cited from earlier work
[2] = system: frataxin in brain and heart of wild-type mice; set-up: method as in PMID 16921367; settings: cited from earlier work
[3] = system: frataxin mRNA in KIKI splenocytes; assay: Fxn mRNA by qRT-PCR in unstimulated KIKI mouse splenocytes; type: cell-based; settings: 10 µM, 48 hours
[4] = system: frataxin mRNA in PBMC from FRDA patients; assay: FXN mRNA by quantitative real-time RT-PCR in unstimulated PBMC from FRDA patients; type: cell-based, human; settings: 10 µM
[5] = Levels of compound in mouse brain and plasma after single injection; type: in vivo; settings: single 150 mg/Kg injection
[6] = system: frataxin mRNA in brain and heart of KIKI mice; assay: Fxn mRNA by qRT-PCR in brain and heart of KIKI mice after single subcutaneous injection; type: in vivo, mouse
[7] = system: FXN mRNA in healthy volunteers PBMCs; assay: FXN mRNA by qRT-PCR in PBMCs from healthy volunteers; type: cell-based, human; settings: 10 µM, 48 h
[8] = system: histone acetylation H3K14 and H4K5 at fxn gene; assay: ChIP of H3K14 and H4K5 acetylation upstream of GAA repeat in KIKI mouse brain; type: in vivo; settings: KIKI mice, 50 or 150 mg/kg s.c.

Compound: Nc1ccccc1NC(=O)CCCCCCC(=O)Nc1ccccc1 [BML-210]
- effect on FXN gene expression [1]: relieve repression of the FXN gene

Compound: O=C(CCCCCCC(=O)Nc1ccccc1)NO [SAHA, suberoylanilide hydroxamic acid]
- effect on FXN gene expression [1]: inactive

Compound: CC(/C=C/C(=O)NO)=C\[C@@H](C)C(=O)c1ccc(N(C)C)cc1 [TSA, trichostatin A]
- effect on FXN gene expression [1]: inactive

Compound: Cc1ccc(NC(=O)CCCCCC(=O)Nc2ccccc2N)cc1 [compound 106, N ^1-(2-aminophenyl)-N ^7-p-tolylheptanediamide, reference compound]
- frataxin upregulation in brain and heart of wild-type mice [2]: no frataxin upregulation
- frataxin mRNA upregulation in mouse splenocytes [3]: significant
- increase of frataxin mRNA levels, average ([4]; 48-hour incubation, average of patients, DMSO = 1): 3.6 fold

Compound: Cc1ccc(C(=O)NCCCCCC(=O)Nc2ccccc2N)cc1 [compound 109]
- time to total elimination from brain and plasma [5]: < 4 h

Compound: Cc1ccc(C(=O)NCCCCCC(=O)Nc2ccc(F)cc2N)cc1 [compound 136]
- frataxin mRNA in brain ([6]; single s.c. 150 mg/kg, 24 hours after injection): increase in frataxin mRNA in the brain to wild-type levels
- Fxn mRNA in heart ([6]; single s.c. dose, only at 50 or 150 mg/kg (not 5, 15), p = 0.009 and 0.008): significantly increased
- Fxn mRNA in brain ([6]; single s.c. dose, only at 50 or 150 mg/kg (not 5, 15), p<0.001): significantly increased
- FXN mRNA in healthy volunteers PBMCs [7]: not overall significantly affected
- FXN mRNA trend in healthy volunteers PBMCs ([7]; non-significant): trend toward downregulation
- histone acetylation H3K14 and H4K5 upstream of GAA repeat, brain [8]: increase in histone acetylation
- frataxin mRNA upregulation in mouse splenocytes [3]: significant
- effect on frataxin mRNA ([4]; 48 h, compared to 10 µM compound 106): limited effect
